Results as given in patent US12702715B2, “Targeted RNA degradation allows precision repurposing of protein-targeted small molecule medicines to RNA” (University of Florida Research Foundation, Incorporated, priority 2020, dated 2026).

Assays:
[1] = test system: FLT3; assay: FLT3 degradation Western blot in MDA-MB-231 cells; type: cell-based, human
Experimental: In each case, the secondary antibody was diluted two times more than the primary antibody.

[2] = Quantitation of 1 and 2 in mouse plasma and tissue; type: in vivo; settings: male, C57BL/6, mouse, lung, ip, 56 mg/kg; intraperitoneal injection; read-out: drug exposure in the lung
Experimental: Quantitation of 1 and 2 in mouse plasma and tissue. Male C57BL/6 mice (n=3 per dose; 5-7 weeks) were intraperitoneally (i.p.) injected with 1 (24, 49 or 81 mg/kg) or 2 (17, 34 or 56 mg/kg) in a formulation of DMSO/Tween-80/H2O (10/10/80). After 48 h, mice were euthanized, and blood, lung and kidney were collected. Tissues were immediately frozen. Blood was centrifuged to generate plasma and immediately frozen. On the day of analysis, tissues were homogenized, mixed with 5-times volume of acetonitrile, and filtered. Drug levels were determined by mass spectrometry using an ABSciex 5500 mass spectrometer using multiple reaction monitoring.

## CCOC(=O)C1=C(Nc2ccccc2)S/C(=C\c2ccc(OCCOCCOCCOCCNC(=O)NCCN3CCN(c4ccc5[nH]c(-c6c(N)c7c(F)cccc7[nH]c6=O)nc5c4)CC3)c(O)c2)C1=O [Compound 2, Ribotac-Dovitinib]
[1]
  fold greater concentration than 1 required to compete off degradation by PROTAC 3: 100 fold
[1]; co-treatment with 3
  concentration required to compete off the target degradation of PROTAC 3: 10 µM
[2]
  concentration at 48 h: 1000 nM
